Laboratory results taken from patent US8071592B2 (priority 2006, dated 2011).
Counter-ions that a name gives are not always drawn.

test system: Mycobacterium tuberculosis H37Rv; assay: Mycobacterium tuberculosis H37Rv Inhibition Assay (resazurin, MIC); type: cell-based; conditions: ATCC 25618 / H37Rv, 144 h, H37Rv strain (ATCC25618), Middlebrook 7H9+ADC medium, six days at 37° C., resazurin fluorescence after 48 hours, read-out: MIC value

| SMILES | MIC [µg/mL] |
| --- | --- |
| O=C1CSc2ccc(CNC[C@@H]3C[C@H](O)CN(CCn4c(=O)ccc5ccc(F)cc54)C3)nc2N1 (racemic) [Example 158] | ≤ 4 |
| O=c1cnc2ccc(F)cc2n1CCN1CC[C@H](NCc2cc3c(nn2)OCCO3)[C@H](O)C1 (single isomer, unassigned) [Example 193] | ≤ 4 |
| Cl.O=c1ccc2ccc(F)cc2n1CCN1CCC(NCc2cc3c(cn2)OCCO3)CC1 [Example 2, 1-(2-{4-[(2,3-dihydro[1,4]dioxino[2,3-c]pyridin-7-ylmethyl)amino]-1-piperidinyl}ethyl)-7-fluoro-2(1H)-quinolinone Hydrochloride] | ≤ 4 |
| O=c1ccc2ncc(F)cc2n1CCN1CCC(NCc2cc3c(cn2)OCCO3)CC1 [Example 7, 1-(2-{4-[(2,3-Dihydro[1,4]dioxino[2,3-c]pyridin-7-ylmethyl)amino]-1-piperidinyl}ethyl)-7-fluoro-1,5-naphthyridin-2(1H)-one Hydrochloride] | ≤ 4 |
| COc1ccc2ccc(=O)n(CCN3CCC(NCc4cc5c(nn4)OCCO5)CC3)c2n1 [Example 17, 1-(2-{4-[(6,7-dihydro[1,4]dioxino[2,3-c]pyridazin-3-ylmethyl)amino]-1-piperidinyl}ethyl)-7-(methyloxy)-1,8-naphthyridin-2(1H)-one Dihydrochloride] | ≤ 4 |
| O=c1cnc2ccc(F)cc2n1CCN1CCC(NCc2cc3c(cn2)OCCO3)CC1 [Example 20, 1-(2-{4-[(2,3-dihydro[1,4]dioxino[2,3-c]pyridin-7-ylmethyl)amino]-1-piperidinyl}ethyl)-7-fluoro-2(1H)-quinoxalinone Dihydrochloride] | ≤ 4 |
| COc1ccc2ncc(=O)n(CCN3CCC(NCc4cc5c(cn4)OCCO5)CC3)c2n1 [Example 37, 4-(2-{4-[(2,3-dihydro[1,4]dioxino[2,3-c]pyridin-7-ylmethyl)amino]-1-piperidinyl}ethyl)-6-(methyloxy)pyrido[2,3-b]pyrazin-3(4H)-one Dihydrochloride] | ≤ 4 |
| O=c1cnc2ccc(F)cc2n1CCN1CCC(NCc2cc3c(cn2)OCC3)CC1 [Example 38, 1-(2-{4-[(2,3-dihydrofuro[2,3-c]pyridin-5-ylmethyl)amino]-1-piperidinyl}ethyl)-7-fluoro-2(1H)-quinoxalinone Dihydrochloride] | ≤ 4 |
| COc1cnc2ncc(=O)n(CCN3CCC(NCc4cc5c(cn4)OCCO5)CC3)c2c1.O=CO.O=CO [Example 51B, 1-(2-{4-[(2,3-dihydro[1,4]dioxino[2,3-c]pyridin-7-ylmethyl)amino]-1-piperidinyl}ethyl)-7-(methyloxy)pyrido[2,3-b]pyrazin-2(1H)-one diformate] | ≤ 4 |
| O=c1cnc2c(F)cc(F)cc2n1CCN1CCC(NCc2cc3c(nn2)OCCO3)CC1 [Example 120] | ≤ 4 |
| O=c1c(F)cc2ccc(F)cc2n1CCN1CCC(NCc2cc3c(cn2)OCCO3)CC1 [Example 180] | ≤ 4 |
| COc1ccc2ncc(=O)n(CCN3C[C@H](CNCc4cc5c(cn4)OCCO5)[C@@H](O)C3)c2n1 [Example 225] | ≤ 4 |
| COc1ccc2ncc(=O)n(CCN3C[C@H](CNCc4cc5c(cn4)OCCO5)[C@H](O)C3)c2c1 [Example 226] | ≤ 4 |
| O=c1ccc2ncccc2n1CCN1CCC(NCc2cc3ccccc3o2)CC1 [Example 282] | ≤ 4 |
| O=c1ccc2ccc(F)cc2n1CCN1CCC(NCc2nc3ccccc3s2)CC1 [Example 287] | ≤ 4 |
| O=c1ccc2ccccc2n1CCN1CCC(NCc2cc3ccccc3o2)CC1 [Example 288] | ≤ 4 |
| O=c1ccc2ccccc2n1CCN1CCC(NCc2cc3cc(Cl)ccc3s2)CC1 [Example 289] | ≤ 4 |
| COc1ccc2ccc(=O)n(CCN3CCC(NCc4ccc5nnn(C)c5c4)CC3)c2c1 [Example 302] | ≤ 4 |

same assay, conditions: ATCC 25618 / H37Rv, 144 h, read-out: MIC value, H37Rv strain (ATCC25618), Middlebrook 7H9+ADC medium, six days at 37° C., resazurin fluorescence after 48 hours

| SMILES | MIC [µg/mL] |
| --- | --- |
| COc1ccc2ccc(=O)n(CCN3C[C@@H](CNCc4ccc5c(n4)NC(=O)CO5)[C@@H](O)C3)c2c1 [Example 53, 6-({[((3R,4R)-4-hydroxy-1-{2-[7-(methyloxy)-2-oxo-1(2H)-quinolinyl]ethyl}-3-pyrrolidinyl)methyl]amino}methyl)-2H-pyrido[3,2-b][1,4]oxazin-3(4H)-one dihydrochloride] | ≤ 4 |
| O=c1ccc2c(F)cc3c(c2n1CCN1CCC(NCc2cc4c(cn2)OCCO4)CC1)OCCO3 [Example 57, 10-(2-{4-[(2,3-dihydro[1,4]dioxino[2,3-c]pyridin-7-ylmethyl)amino]-1-piperidinyl}ethyl)-6-fluoro-2,3-dihydro[1,4]dioxino[2,3-h]quinolin-9(10H)-one hydrochloride] | ≤ 4 |
| COc1ccc2ccc(=O)n(CCN3C[C@H](CNCc4cc5c(cn4)OCCO5)[C@H](O)C3)c2c1 [Example 74, 1-[2-((3S,4S)-3-{[(2,3-dihydro[1,4]dioxino[2,3-c]pyridin-7-ylmethyl)amino]methyl}-4-hydroxy-1-pyrrolidinyl)ethyl]-7-(methyloxy)-2(1H)-quinolinone Hydrochloride] | ≤ 4 |
| Cc1cc(=O)n(CCN2CCC(NCc3cc4c(cn3)OCCO4)CC2)c2cc(F)ccc12 [Example 131, 1-(2-{4-[(2,3-Dihydro[1,4]dioxino[2,3-c]pyridin-7-ylmethyl)amino]-1-piperidinyl}ethyl)-7-fluoro-4-methyl-2(1H)-quinolinone Dihydrochloride] | ≤ 4 |
| O=c1ccc2ccc(F)cc2n1CCN1CC[C@@H](O)[C@@H](CNCc2cc3c(cn2)OCCO3)C1 [Example 138, 1-[2-((3S,4R)-3-{[(2,3-Dihydro[1,4]dioxino[2,3-c]pyridin-7-ylmethyl)amino]methyl}-4-hydroxy-1-piperidinyl)ethyl]-7-fluoro-2(1H)-quinolinone Dihydrochloride] | ≤ 4 |

same assay, conditions: ATCC25618|H37RV, 144 h, H37Rv strain (ATCC25618), Middlebrook 7H9+ADC medium, six days at 37° C., resazurin fluorescence after 48 hours, read-out: MIC value

| SMILES | MIC [µg/mL] |
| --- | --- |
| O=c1ccc2ncc(F)cc2n1CCN1CCC(NCc2cc3c(nn2)OCCO3)CC1 [Example 9, Hydrochloride] | ≤ 4 |

test system: Gram-positive organisms (Staphylococcus aureus, Streptococcus pneumoniae, Streptococcus pyogenes, Enterococcus faecalis, Enterococcus faecium) and …; assay: not given; type: cell-based; conditions: against a strain of at least one of the organisms listed; tested in at least one exemplified salt form

| SMILES | MIC [µg/mL] |
| --- | --- |
| CC(C)(O)c1c(F)cnc2ccc(=O)n(CCN3CCC(NCc4ccc5c(n4)NC(=O)CO5)CC3)c12 [Example 183] | 16 |
| COc1ccc2ncc(=O)n(CCN3C[C@H](CNCc4ccn5ccc(=O)nc5c4)[C@H](O)C3)c2n1 [Example 272] | > 16 |
